Results from patent publication US7034056B2, “Aryl and biaryl compounds having MCH modulatory activity” (Pharmacopeia Drug Discovery, inc., priority 2001, dated 2006).
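Throughout, for Activity (Ki range): A 0.4–50 nM B 51–500 nM C 501–2500 nM.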

These molecules were tested against T1, hMCHR (MCH receptor) (Homo sapiens, UniProt Q99705) (assay: MCH Assay PCOP Protocol ([125I]-MCH SPA binding to hMCHR-CHO membranes)). Details: [125I]-MCH 0.5 nM, hMCHR-CHO membranes; read-out: Activity (ranges of Ki values).
T1 construct: (or internally produced); host or cells: CHO (Chinese hamster ovary) cells, membrane preparation
T1 sequence (Q99705 whole entry): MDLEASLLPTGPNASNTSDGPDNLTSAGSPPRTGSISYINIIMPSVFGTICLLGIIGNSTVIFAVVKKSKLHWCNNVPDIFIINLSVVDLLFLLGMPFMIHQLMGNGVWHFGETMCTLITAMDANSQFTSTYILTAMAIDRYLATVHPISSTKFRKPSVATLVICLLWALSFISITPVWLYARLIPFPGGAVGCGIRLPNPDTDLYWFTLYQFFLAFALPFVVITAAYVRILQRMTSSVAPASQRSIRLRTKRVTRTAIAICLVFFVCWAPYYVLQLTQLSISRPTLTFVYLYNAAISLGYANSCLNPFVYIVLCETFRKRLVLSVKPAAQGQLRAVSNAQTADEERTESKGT
Description: A reaction mixture of 10 μg hMCHR-CHO overexpressing membranes (from Receptor Biology, Inc., Beltsville, Md., or internally produced) and 100 μg/well WGA-SPA beads (from Amersham Pharmacia Biotech, Inc., Piscataway, N.J.)/100 μl was prepared in MCHR assay buffer (25 mM HEPES, pH 7.4, 10 mM NaCl, 10 mM MgCl2, 5 mM MnCl2, 0.1% BSA). […] The assay plates were shaken for 5 minutes on a plate shaker, then incubated for 2 hours before cpm/well were determined in a Microbeta Trilux counter (from PerkinElmer Wallac, Inc., Gaithersburg, Md.).
Molecule CN(C)CCCNCCC(CNC(=O)Nc1cc(Cl)cc(Cl)c1)c1ccc(-c2ccc(C#N)cc2)cc1 (stereo not shown) [Example 98] has a Ki of 0.051 to 0.5 µM.
In the case of N#Cc1cccc(-c2ccc(C(CCNC3CC3)CNC(=O)Nc3ccc(F)cc3)cc2)c1 (stereo not shown) [Example 59], the Ki is reported as 0.0004 to 0.05 µM.
With N#Cc1cccc(-c2ccc(C(CCNC3CC3)CNC(=O)Nc3ccc(F)c(F)c3)cc2)c1 (stereo not shown) [Example 53] the Ki was 0.0004 to 0.05 µM.
Molecule O=C(NCC(CCNC1CCCC1)c1cccc(-c2ccc(F)c(Cl)c2)c1)Nc1cc(Cl)cc(Cl)c1 (stereo not shown) [Example 159] has a Ki of 0.051 to 0.5 µM.
CN(C)CCCNCCC(CNC(=O)Nc1cc(Cl)cc(Cl)c1)c1cccc(-c2ccccc2)c1 (stereo not shown) [Example 171] was tested, and the Ki was 0.501 to 2.5 µM.
In the case of CN(C)CCC(CNC(=O)c1cc(F)cc(F)c1)c1ccc(-c2cccc(C#N)c2)cc1 (stereo not shown) [Example 66], the Ki is reported as 0.0004 to 0.05 µM.
Work on Cc1noc(C)c1-c1ccc(C(CCNC2CCCC2)CNC(=O)Nc2cc(Cl)cc(Cl)c2)cc1 (stereo not shown) [Example 97] yielded a Ki of 0.051 to 0.5 µM.
CN(C)CCC(CNS(=O)(=O)c1cc(Cl)cc(Cl)c1)c1ccc(-c2cccc(C#N)c2)cc1 (racemic) [Example 25, (R,S)-3,5-Dichloro-N-[2-(3′-cyano-biphenyl-4-yl)-4-dimethylaminobutyl]-benzenesulfonamide] showed a Ki of 0.501 to 2.5 µM.
CCNC(=O)N1CCC(NCCC(CNC(=O)Nc2cc(Cl)cc(Cl)c2)c2ccc(Cl)cc2)C1 (stereo not shown) [Example 177] showed a Ki of 0.051 to 0.5 µM.
CN(C)CCCNCCC(CNC(=O)Nc1cc(Cl)cc(Cl)c1)c1ccc(-c2cc(F)cc(F)c2)cc1 (stereo not shown) [Example 99] showed a Ki of 0.051 to 0.5 µM.
O=C(NCC(CCNC1CCCC1)c1cccc(-c2ccc3c(c2)OCO3)c1)Nc1cc(Cl)cc(Cl)c1 (stereo not shown) [Example 147] was tested, and the Ki was 0.051 to 0.5 µM.
For O=C(NCC(CCNC1CCCC1)c1cccc(-c2ccc(Cl)cc2)c1)Nc1cc(Cl)cc(Cl)c1 (stereo not shown) [Example 152], the Ki was 0.051 to 0.5 µM.
With CS(=O)(=O)N(CCC(CNC(=O)Nc1cc(Cl)cc(Cl)c1)c1ccc(-c2cccc(C#N)c2)cc1)C1CCCC1 (stereo not shown) [Example 87] the Ki was 0.501 to 2.5 µM.
For N#Cc1cccc(-c2ccc(C(CCNC3CC3)CNC(=O)c3ccc(F)c(F)c3)cc2)c1 (stereo not shown) [Example 68], the Ki was 0.051 to 0.5 µM.
CNCCC(CNC(=O)Nc1ccc(F)c(Cl)c1)c1ccc(-c2cccc(C#N)c2)cc1 (stereo not shown) [Example 46] showed a Ki of 0.0004 to 0.05 µM.
CN(C)CCCNCCC(CNC(=O)Nc1cc(Cl)cc(Cl)c1)c1ccc(-c2cccc(OC(F)(F)F)c2)cc1 (stereo not shown) [Example 88] gave a Ki of 0.0004 to 0.05 µM.
N#Cc1cccc(-c2ccc([C@H](CCN3CC[C@@H](NC(=O)c4cc(Cl)cc(Cl)c4)C3)CNC(=O)Nc3cc(Cl)cc(Cl)c3)cc2)c1 [Example 28, (R,S)-3,5-Dichloro-N-(1-{3-(3′-cyano-biphenyl-4-yl)-4-[3-(3,5-dichloro-phenyl)-ureido]-butyl}-pyrrolidin-3-yl)-benzamide] gave a Ki of 0.501 to 2.5 µM.
Molecule O=S(=O)(NCC(CCNC1CCCC1)c1ccc(Cl)c(Cl)c1)c1ccc(Cl)c(Cl)c1 (racemic) [Example 21, (R,S)-3,4-Dichloro-N-[4-cyclopentylamino-2-(3,4-dichloro-phenyl)-butyl]-benzenesulfonamide] has a Ki of 0.501 to 2.5 µM.
Work on Cc1ccc(C(CCN2CCC(NC(=O)c3ccno3)C2)CNC(=O)Nc2cc(Cl)cc(Cl)c2)cc1 (stereo not shown) [Example 202] yielded a Ki of 0.501 to 2.5 µM.
With CC(C)NCCC(CNC(=O)Oc1ccc(Cl)cc1)c1ccc(-c2cccc(C#N)c2)cc1 (racemic) [Example 26, (R,S)-[-2-(3′-Cyano-biphenyl-4-yl)-4-isopropylaminobutyl]-carbamic acid-4-chlorophenyl ester] the Ki was 0.501 to 2.5 µM.
For CN(C)CCCNCCC(CNC(=O)Nc1cc(Cl)cc(Cl)c1)c1cccc(-c2cccnc2)c1 (stereo not shown) [Example 172], the Ki was 0.501 to 2.5 µM.
COc1cc(CNCCC(CNC(=O)Nc2ccc(F)c(Cl)c2)c2ccc(Cl)c(Cl)c2)cc(OC)c1OC (stereo not shown) [Example 126] was tested, and the Ki was 0.051 to 0.5 µM.
COCC(=O)NC1CCN(CCC(CNC(=O)Nc2cc(Cl)cc(Cl)c2)c2ccc(Cl)cc2)C1 (stereo not shown) [Example 194] showed a Ki of 0.051 to 0.5 µM.
Work on COCCNCCC(CNC(=O)Nc1cc(Cl)cc(Cl)c1)c1ccc(-c2cccc(C#N)c2)cc1 (stereo not shown) [Example 72] yielded a Ki of 0.0004 to 0.05 µM.
For CC(CCNC1CCCC1)(CNC(=O)Nc1ccc(F)c(F)c1)c1ccc(Cl)c(Cl)c1 (stereo not shown) [Example 114], the Ki was 0.501 to 2.5 µM.
O=C(NCC(CCN1CCC(NC(=O)C2CCC2)C1)c1ccc(Cl)cc1)Nc1cc(Cl)cc(Cl)c1 (stereo not shown) [Example 178] gave a Ki of 0.051 to 0.5 µM.
O=C(NCC(CCNC1CCC1)c1ccc(Cl)c(Cl)c1)Nc1ccc(F)c([N+](=O)[O-])c1 (racemic) [Example 22] showed a Ki of 0.501 to 2.5 µM.
With CN(C)CCCNCCC(C)(CNC(=O)Nc1ccc(F)c([N+](=O)[O-])c1)c1ccc(Cl)c(Cl)c1 (stereo not shown) [Example 117] the Ki was 0.501 to 2.5 µM.
CCOC(=O)N1CCC(NCCC(CNC(=O)Nc2cccc(C(F)(F)F)c2)c2ccc(C)cc2)CC1 (stereo not shown) [Example 137] was tested, and the Ki was 0.051 to 0.5 µM.
For CC(=O)NC1CCN(CCC(CNC(=O)Nc2cc(Cl)cc(Cl)c2)c2ccc(C)cc2)C1 (stereo not shown) [Example 215], the Ki was 0.501 to 2.5 µM.
Work on O=C(NCC(CCN1CCC(NC(=O)c2cccs2)CC1)c1ccc(Cl)cc1)Nc1cc(Cl)cc(Cl)c1 (stereo not shown) [Example 216] yielded a Ki of 0.501 to 2.5 µM.
For CN(C)CCCNCCC(CNC(=O)Nc1cc(Cl)cc(Cl)c1)c1ccc(Cl)cc1 (stereo not shown) [Example 112], the Ki was 0.501 to 2.5 µM.

Same assay, conditions: [125I]-MCH SPA binding, hMCHR-CHO membranes; Ki class ranges; read-out: Activity (range of Ki)
With CCN(CCC(CNC(=O)Nc1cc(C(F)(F)F)cc(C(F)(F)F)c1)c1ccc(Cl)c(Cl)c1)Cc1ccncc1 (stereo not shown) [Example 435] the Ki was 0.501 to 2.5 µM.
In the case of O=C(NCC(CCN1CCCC1CN1CCCC1)c1ccc(Cl)c(Cl)c1)c1cc(C(F)(F)F)cc(C(F)(F)F)c1 (stereo not shown) [Example 418], the Ki is reported as 0.501 to 2.5 µM.
O=C(NCC(CCN1CCCCC1)c1ccc(Cl)c(Cl)c1)c1cc(Cl)cc(Cl)c1 (stereo not shown) [Example 446] showed a Ki of 0.501 to 2.5 µM.
Work on CC1CCCN(CCC(CNC(=O)c2cc(C(F)(F)F)cc(C(F)(F)F)c2)c2ccc(Cl)c(Cl)c2)C1 (stereo not shown) [Example 417] yielded a Ki of 0.501 to 2.5 µM.
For CC(Cc1c[nH]c2ccccc12)NCCC(CNC(=O)Nc1cc(C(F)(F)F)cc(C(F)(F)F)c1)c1ccc(Cl)c(Cl)c1 (stereo not shown) [Example 438], the Ki was 0.501 to 2.5 µM.
N#Cc1cccc(C(=O)NCC(CCN2CCCCC2)c2ccc(Cl)c(Cl)c2)c1 (stereo not shown) [Example 453] gave a Ki of 0.501 to 2.5 µM.
Molecule O=C(NCc1cc(C(F)(F)F)cc(C(F)(F)F)c1)C(CCN1CCC(N2CCCCC2)CC1)c1ccc(Cl)c(Cl)c1 (stereo not shown) [Example 457] has a Ki of 0.501 to 2.5 µM.

Same assay, conditions: [125I]-MCH binding to hMCHR-CHO membranes; class symbols for ranges of Ki; read-out: Activity (Ki range)
In the case of COc1cc(-c2ccc(C(CCNCCCN(C)C)CNC(=O)Nc3cc(Cl)cc(Cl)c3)cc2)cc(OC)c1OC (stereo not shown) [Example 257], the Ki is reported as 0.501 to 2.5 µM.
For CN(C)CCCNCCC(CNC(=O)Nc1cc(Cl)cc(Cl)c1)c1ccc(-c2ccc(O)cc2)cc1 (stereo not shown) [Example 251], the Ki was 0.051 to 0.5 µM.
Molecule O=C(NCC(CCN1CCC(N2CCCCC2)CC1)c1ccc(Cl)c(Cl)c1)Nc1cccc(Br)c1 (stereo not shown) [Example 312] has a Ki of 0.051 to 0.5 µM.
In the case of O=C(NCC(CCN1CCC(N2CCCCC2)CC1)c1ccc(Cl)c(Cl)c1)Nc1ccc(F)c(F)c1F (stereo not shown) [Example 363], the Ki is reported as 0.501 to 2.5 µM.
With COc1ccc(-c2ccc(C(CCNCCCN(C)C)CNC(=O)Nc3cc(Cl)cc(Cl)c3)cc2)cc1 (stereo not shown) [Example 240] the Ki was 0.051 to 0.5 µM.
With CN(C)C1CCN(CCC(CNC(=O)Nc2cc(Cl)cc(Cl)c2)c2ccc(Cl)c(Cl)c2)C1 (stereo not shown) [Example 292] the Ki was 0.051 to 0.5 µM.
CC(C)OCCCNCCC(CNC(=O)c1cc(C(F)(F)F)cc(C(F)(F)F)c1)c1ccc(Cl)c(Cl)c1 (stereo not shown) [Example 409] gave a Ki of 0.501 to 2.5 µM.
O=C(NCc1ccc(F)c(F)c1)NCC(CCN1CCC(N2CCCCC2)CC1)c1ccc(Cl)c(Cl)c1 (stereo not shown) [Example 258] was tested, and the Ki was 0.051 to 0.5 µM.
Work on O=C(NCC(CCNCc1ccc2c(c1)OCO2)c1ccc(Cl)c(Cl)c1)Nc1ccc(F)c(Cl)c1 (stereo not shown) [Example 261] yielded a Ki of 0.051 to 0.5 µM.
O=C(NCC(CCNCCc1ccc(O)cc1)c1ccc(Cl)c(Cl)c1)Nc1ccc(Cl)c(Cl)c1 (stereo not shown) [Example 278] gave a Ki of 0.051 to 0.5 µM.
In the case of O=C(NCC(CCNC1CCC1)c1ccc(Cl)c(Cl)c1)Nc1ccc(F)c(Cl)c1 (stereo not shown) [Example 263], the Ki is reported as 0.501 to 2.5 µM.
In the case of COc1ccc2c(CCNCCC(CNC(=O)c3cc(C(F)(F)F)cc(C(F)(F)F)c3)c3ccc(Cl)c(Cl)c3)c[nH]c2c1 (stereo not shown) [Example 394], the Ki is reported as 0.501 to 2.5 µM.
Molecule O=C(NCC(CCN1CCC(N2CCCCC2)CC1)c1ccc(Cl)c(Cl)c1)Nc1cc(Cl)ccc1Cl (stereo not shown) [Example 360] has a Ki of 0.501 to 2.5 µM.
Work on O=C(NCC(CCNC1CCCC1)c1ccc(-c2cc(C(F)(F)F)cc(C(F)(F)F)c2)cc1)Nc1cc(Cl)cc(Cl)c1 (stereo not shown) [Example 253] yielded a Ki of 0.501 to 2.5 µM.
Molecule O=S(=O)(NCC(CCN1CCC(N2CCCCC2)CC1)c1ccc(Cl)c(Cl)c1)c1ccc(Cl)c(Cl)c1 (stereo not shown) [Example 372] has a Ki of 0.501 to 2.5 µM.
Molecule CN(C)CCCNCCC(CNC(=O)Nc1cc(Cl)cc(Cl)c1)c1ccc(-c2ccsc2)cc1 (stereo not shown) [Example 235] has a Ki of 0.051 to 0.5 µM.
CCCN(CC)CCC(CNC(=O)Nc1ccc(Cl)c(Cl)c1)c1ccc(Cl)c(Cl)c1 (stereo not shown) [Example 289] showed a Ki of 0.051 to 0.5 µM.
In the case of O=C(NCc1cc(C(F)(F)F)cc(C(F)(F)F)c1)C(CCNC1CCC1)c1ccc(Cl)c(Cl)c1 (stereo not shown) [Example 379], the Ki is reported as 0.501 to 2.5 µM.
In the case of O=C(NCC(CCNC1CCCC1)c1ccc(-c2ccc3c(c2)OCO3)cc1)Nc1cc(Cl)cc(Cl)c1 (stereo not shown) [Example 227], the Ki is reported as 0.051 to 0.5 µM.
For O=C(NCC(CCN1CCC(N2CCCCC2)CC1)c1ccc(Cl)c(Cl)c1)Nc1ccc([N+](=O)[O-])c(Cl)c1 (stereo not shown) [Example 286], the Ki was 0.051 to 0.5 µM.
O=C(NCC(CCNC1CCCC1)c1ccc(Cl)c(Cl)c1)Nc1cccc(C(F)(F)F)c1 (stereo not shown) [Example 290] gave a Ki of 0.051 to 0.5 µM.
For O=C(NCC(CCNCCc1c[nH]c2ccccc12)c1ccc(Cl)c(Cl)c1)Nc1cc(C(F)(F)F)cc(C(F)(F)F)c1 (stereo not shown) [Example 320], the Ki was 0.501 to 2.5 µM.
Work on CN(C)CCCNCCC(CNC(=O)Nc1cc(C(F)(F)F)cc(C(F)(F)F)c1)c1cccc(F)c1 (stereo not shown) [Example 346] yielded a Ki of 0.501 to 2.5 µM.
Molecule O=C(NCC(CCNCC1CCCO1)c1ccc(Cl)c(Cl)c1)c1cc(C(F)(F)F)cc(C(F)(F)F)c1 (stereo not shown) [Example 404] has a Ki of 0.501 to 2.5 µM.
O=C(NCC(CCN1CCC(N2CCCCC2)CC1)c1ccc(F)c(F)c1)Nc1ccc(Cl)c(Cl)c1 (stereo not shown) [Example 369] showed a Ki of 0.501 to 2.5 µM.
